From US10759826B2, “15β-substituted estrone derivatives as selective inhibitors of 17β-hydroxysteroid-dehydrogenases, method of preparation and use thereof” (USTAV ORGANICKE CHEMIE A BIOCHEMIE AV CR, V.V.I., priority 2016, dated 2020) come the findings set out here.

One may read the inhibition as the drop in the measured response relative to a control, in per cent. By EC50 is commonly meant the concentration giving half of the maximal effect. Read a low EC50 as a more potent agent. The IC50 is the concentration that gives 50% inhibition.

Structures are written as SMILES.

In assay [1] the target is T1, human 17βHSD type 1 (Homo sapiens, UniProt P14061).
T1 construct: made in house; expressing system suspended in buffer, not purified
T1 sequence (P14061 1-328): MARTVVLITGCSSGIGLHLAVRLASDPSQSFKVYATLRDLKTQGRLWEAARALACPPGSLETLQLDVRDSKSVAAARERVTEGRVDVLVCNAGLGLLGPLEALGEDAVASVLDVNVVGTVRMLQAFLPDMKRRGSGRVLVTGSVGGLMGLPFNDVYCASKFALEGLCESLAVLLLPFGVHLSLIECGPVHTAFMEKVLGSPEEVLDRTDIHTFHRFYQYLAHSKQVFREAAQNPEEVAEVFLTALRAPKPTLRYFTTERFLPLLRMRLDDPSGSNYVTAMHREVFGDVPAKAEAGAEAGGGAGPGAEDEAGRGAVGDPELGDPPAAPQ
The assay can be described thus: Inhibition of recombinant 17βHSD type 1, tritium-labeled substrate conversion. The class given is biochemical. The note with it: for inhibition at 0.1 µM: 0.1 μmol · l^−1 test substance; for inhibition at 0.1 µM / inhibition at 1 µM: read-out: % of inhibition of human 17βHSD1; for inhibition at 1 µM: 1 μmol · l^−1 test substance.

For assay [2], the target named is T2, estrogen receptor α (ERα) (Homo sapiens, UniProt P03372).
T2 construct: expressed in transfected cells
T2 sequence (P03372 1-595): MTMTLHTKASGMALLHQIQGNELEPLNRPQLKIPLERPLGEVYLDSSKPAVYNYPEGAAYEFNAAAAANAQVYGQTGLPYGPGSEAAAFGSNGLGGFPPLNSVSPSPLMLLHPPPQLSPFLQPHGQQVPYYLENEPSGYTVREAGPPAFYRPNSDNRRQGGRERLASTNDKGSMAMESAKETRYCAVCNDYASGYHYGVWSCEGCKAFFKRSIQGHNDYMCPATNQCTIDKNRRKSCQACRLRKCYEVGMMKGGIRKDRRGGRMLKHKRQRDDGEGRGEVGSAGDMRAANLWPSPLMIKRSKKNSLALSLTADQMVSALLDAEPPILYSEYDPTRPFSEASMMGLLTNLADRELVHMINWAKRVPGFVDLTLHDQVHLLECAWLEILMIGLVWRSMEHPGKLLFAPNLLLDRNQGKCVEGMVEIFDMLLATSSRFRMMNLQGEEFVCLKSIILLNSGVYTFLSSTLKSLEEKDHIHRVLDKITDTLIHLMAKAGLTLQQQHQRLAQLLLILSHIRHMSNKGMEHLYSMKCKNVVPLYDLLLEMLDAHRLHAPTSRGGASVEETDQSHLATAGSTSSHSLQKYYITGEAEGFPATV
Description: ERα luciferase reporter assay in U2OS cells. The class given is cell-based. The conditions noted are these: for Emax: U2OS, read-out: efficacy of ERα activation, % of the maximal effect produced by E2; for EC50: agonist mode, U2OS reporter, 24 h; for IC50: antagonist mode, 1 nmol·l^−1 E2. A general note: In a reporter assay the amount or activity of a reporter protein is the signal.

The subject of assay [3] is U2OS cells. The assay can be described thus: Cell viability (ATP) of unmodified U2OS cells, parallel to reporter assay. The class given is cell-based, human. The conditions noted are these: Homo sapiens. The protocol:
To separate the antagonist activity of test compounds from the cytotoxic effect on U2OS cells (cell line derived from osteosarcoma), an experiment for determination of cell viability was performed in parallel with the reporter assay. Original, genetically unmodified U2OS cells were grown under the same conditions as the reporter cells. These cells were further treated and incubated with the compounds in a completely identical manner and for the same time as cells in the reporter assay. At the end of the experiment, the amount of ATP was determined using BriteLite luciferase homogeneous assay as a measure of cell viability. The data were then processed together with data from the reporter assays.

In assay [4] the test system is PC3. Description: 7 day proliferation assay, PC3. The note with it: 1 μmol·l^−1, 7 days. Format: cell-based. As to the method:
In this study, T47D cells were propagated in RPMI 1640 medium supplemented with 10% fetal bovine serum, 2 mmol^·l^−1 glutaMAX (Thermo Fisher Scientific, MA, USA), and penicillin/streptomycin (Thermo Fisher Scientific, Waltham, USA) and incubated in a 5% CO2-humidified atmosphere at 37° C. to the amount needed for the experiment. Two days prior to testing of compounds, growth medium was changed to medium without phenol red, supplemented with 2 mmol^·l^−1 Glutamax and 4% FBS depleted of lipophilic components (including the endogenous estrogenic substances) (Hyclone, GE Healthcare Life Sciences, USA). Two days after the medium replacement, the cells were harvested, counted and resuspended in a medium. Cells were dispensed with liquid dispenser Multidrop (Thermo Fisher Scientific, Waltham, USA), to the cell culture treated, 12-well plates (Corning Inc., NY, USA) at 100 000 cells/well in 1 mL of total media volume. […] After 7 days of cell cultivation with compounds, cells were harvested and counted. […]
Compounds 9 and 12 were tested in the proliferation assay with cell lines derived from the triple negative breast cancer (MDA-MB-231), AR-negative prostate cancer (PC3, DU145) and ovarian cancer (SK-OV-3, CaoV-3). […] At the end of the treatment, cells were harvested and counted. […]

As for `CCOc1ccc(CC[C@@H]2CC(=O)[C@@]3(C)CC[C@@H]4c5ccc(O)cc5CC[C@H]4[C@H]23)cc1` [Compound 12, 15β-(4-Ethoxyphenethyl)-3-hydroxy-estra-1,3,5(10)-trien-17-one], in assay [1], the inhibition at 0.1 µM is 85% and the inhibition at 1 µM stood at 88%. In addition, in assay [2], the Emax is below 40%, the EC50 was above 10 µM and the IC50 came out at 29 µM. The “ER antagonism in words” value in assay [2] (testing range 10 μmol·l^−1 to 1 nmol·l^−1) is reported as “antagonists of both types of receptors”. Further, the IC50 in assay [3] is above 100 µM. Also, the “% of survived cells compared to untreated samples, PC3” value in assay [4] came out at 98%.

For the compound `COc1ccc(CC[C@@H]2CC(=O)[C@@]3(C)CC[C@@H]4c5ccc(O)cc5CC[C@H]4[C@H]23)cc1` [Compound 9, 3-Hydroxy-15β-(4-methoxyphenethyl)-estra-1,3,5 (10)-trien-17-one], in assay [1], the inhibition at 0.1 µM amounted to 91% and the inhibition at 1 µM came to 100%. Besides, the half-inhibitory concentration (IC50) in assay [1] (read-out: 17βHSD1 IC50) came to 0.01 µM. In assay [2], the Emax is below 40%, the concentration giving a half-maximal response (EC50) was above 10 µM and the half-inhibitory concentration (IC50) worked out at 23.5 µM. The compound further gave a concentration for half-maximal inhibition (IC50) in assay [3] above 100 µM. Moreover, the “% of survived cells compared to untreated samples, PC3” value in assay [4] came to 96%.
